From PubChem BioAssay (NCI)
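All cell lines were grown in 96-well plates and treated with compound for 48 hours. GI50: concentration for 50% inhibition of growth. TGI: concentration producing complete growth inhibition.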

Legend:
Assay in all cases: NCI-60 cell line screen, 48 h
786-0 renal = test system: 786-0 renal
A498 renal = test system: A498 renal
A549 NSCLC = test system: A549 NSCLC
ACHN renal = test system: ACHN renal
BT-549 breast = test system: BT-549 breast
CAKI-1 renal = test system: CAKI-1 renal
CCRF-CEM leukemia = test system: CCRF-CEM leukemia
COLO 205 colon = test system: COLO 205 colon
DU-145 prostate = test system: DU-145 prostate
EKVX NSCLC = test system: EKVX NSCLC
HCC-2998 colon = test system: HCC-2998 colon
HCT-116 colon = test system: HCT-116 colon
HCT-15 colon = test system: HCT-15 colon
HL-60(TB) leukemia = test system: HL-60(TB) leukemia
HOP-62 NSCLC = test system: HOP-62 NSCLC
HOP-92 NSCLC = test system: HOP-92 NSCLC
HT29 colon = test system: HT29 colon
IGROV1 ovarian = test system: IGROV1 ovarian
K-562 leukemia = test system: K-562 leukemia
KM12 colon = test system: KM12 colon
LOX IMVI melanoma = test system: LOX IMVI melanoma
MALME-3M melanoma = test system: MALME-3M melanoma
MCF7 breast = test system: MCF7 breast
MDA-MB-231 breast = test system: MDA-MB-231 breast
MDA-MB-468 breast = test system: MDA-MB-468 breast
MOLT-4 leukemia = test system: MOLT-4 leukemia
NCI-H226 lung = test system: NCI-H226 lung
NCI-H23 lung = test system: NCI-H23 lung
NCI-H460 lung = test system: NCI-H460 lung
NCI-H522 lung = test system: NCI-H522 lung
OVCAR-3 ovarian = test system: OVCAR-3 ovarian
OVCAR-4 ovarian = test system: OVCAR-4 ovarian
OVCAR-5 ovarian = test system: OVCAR-5 ovarian
OVCAR-8 ovarian = test system: OVCAR-8 ovarian
PC-3 prostate = test system: PC-3 prostate
RPMI-8226 leukemia = test system: RPMI-8226 leukemia
RXF 393 renal = test system: RXF 393 renal
SF-268 CNS = test system: SF-268 CNS
SF-295 CNS = test system: SF-295 CNS
SF-539 CNS = test system: SF-539 CNS
SK-MEL-28 melanoma = test system: SK-MEL-28 melanoma
SK-MEL-5 melanoma = test system: SK-MEL-5 melanoma
SK-OV-3 ovarian = test system: SK-OV-3 ovarian
SN12C renal = test system: SN12C renal
SNB-19 CNS = test system: SNB-19 CNS
SNB-75 CNS = test system: SNB-75 CNS
SR leukemia = test system: SR leukemia
SW-620 colon = test system: SW-620 colon
T-47D breast = test system: T-47D breast
TK-10 renal = test system: TK-10 renal
U251 CNS = test system: U251 CNS
UACC-257 melanoma = test system: UACC-257 melanoma
UACC-62 melanoma = test system: UACC-62 melanoma
UO-31 renal = test system: UO-31 renal

COc1cccc(C(N)=Nc2ccc(OCCCCCCn3cncn3)cc2)c1
GI50 (786-0 renal): 0.628 µM
TGI (786-0 renal): > 100 µM
GI50 (A498 renal): 26.1 µM
TGI (A498 renal): > 100 µM
GI50 (A549 NSCLC): 2.86 µM
TGI (A549 NSCLC): > 100 µM
GI50 (ACHN renal): 4.26 µM
TGI (ACHN renal): > 100 µM
GI50 (BT-549 breast): 0.957 µM
TGI (BT-549 breast): > 100 µM
GI50 (CAKI-1 renal): 0.909 µM
TGI (CAKI-1 renal): > 100 µM
GI50 (CCRF-CEM leukemia): 1.04 µM
TGI (CCRF-CEM leukemia): > 100 µM
GI50 (COLO 205 colon): 1.75 µM
TGI (COLO 205 colon): 10.3 µM
GI50 (DU-145 prostate): 3.05 µM
TGI (DU-145 prostate): 51.6 µM
GI50 (EKVX NSCLC): 2.92 µM
TGI (EKVX NSCLC): > 100 µM
GI50 (HCC-2998 colon): 2.78 µM
TGI (HCC-2998 colon): > 100 µM
GI50 (HCT-116 colon): 0.439 µM
TGI (HCT-116 colon): > 100 µM
GI50 (HCT-15 colon): 2.43 µM
TGI (HCT-15 colon): > 100 µM
GI50 (HL-60(TB) leukemia): 0.567 µM
TGI (HL-60(TB) leukemia): 42.9 µM
GI50 (HOP-62 NSCLC): 4.13 µM
TGI (HOP-62 NSCLC): > 100 µM
GI50 (HOP-92 NSCLC): 4.13 µM
TGI (HOP-92 NSCLC): > 100 µM
GI50 (HT29 colon): 1.23 µM
TGI (HT29 colon): 5.07 µM
GI50 (IGROV1 ovarian): 3.53 µM
TGI (IGROV1 ovarian): > 100 µM
GI50 (K-562 leukemia): 0.475 µM
TGI (K-562 leukemia): > 100 µM
GI50 (KM12 colon): 1.54 µM
TGI (KM12 colon): > 100 µM
GI50 (LOX IMVI melanoma): 2.78 µM
TGI (LOX IMVI melanoma): > 100 µM
GI50 (MALME-3M melanoma): 1.57 µM
TGI (MALME-3M melanoma): > 100 µM
GI50 (MCF7 breast): 0.465 µM
TGI (MCF7 breast): > 100 µM
GI50 (MDA-MB-231 breast): 1.7 µM
TGI (MDA-MB-231 breast): 57.6 µM
GI50 (MDA-MB-468 breast): 0.429 µM
TGI (MDA-MB-468 breast): > 100 µM
GI50 (MOLT-4 leukemia): 3.19 µM
TGI (MOLT-4 leukemia): > 100 µM
GI50 (NCI-H226 lung): 2.67 µM
TGI (NCI-H226 lung): 9.75 µM
GI50 (NCI-H23 lung): 3.44 µM
TGI (NCI-H23 lung): > 100 µM
GI50 (NCI-H460 lung): 1.18 µM
TGI (NCI-H460 lung): 22.1 µM
GI50 (NCI-H522 lung): 1.08 µM
TGI (NCI-H522 lung): 3.96 µM
GI50 (OVCAR-3 ovarian): 0.601 µM
TGI (OVCAR-3 ovarian): 3.36 µM
GI50 (OVCAR-4 ovarian): 12.8 µM
TGI (OVCAR-4 ovarian): > 100 µM
GI50 (OVCAR-5 ovarian): 3.18 µM
TGI (OVCAR-5 ovarian): > 100 µM
GI50 (OVCAR-8 ovarian): 3.16 µM
TGI (OVCAR-8 ovarian): 28.1 µM
GI50 (PC-3 prostate): 1.86 µM
TGI (PC-3 prostate): > 100 µM
GI50 (RPMI-8226 leukemia): 2.82 µM
TGI (RPMI-8226 leukemia): > 100 µM
GI50 (RXF 393 renal): 2.3 µM
TGI (RXF 393 renal): > 100 µM
GI50 (SF-268 CNS): 4.3 µM
TGI (SF-268 CNS): 86.2 µM
GI50 (SF-295 CNS): 1.5 µM
TGI (SF-295 CNS): 30.7 µM
GI50 (SF-539 CNS): 1.61 µM
TGI (SF-539 CNS): 4.82 µM
GI50 (SK-MEL-28 melanoma): 4.6 µM
TGI (SK-MEL-28 melanoma): > 100 µM
GI50 (SK-MEL-5 melanoma): 1.47 µM
TGI (SK-MEL-5 melanoma): 10.2 µM
GI50 (SK-OV-3 ovarian): 4.69 µM
TGI (SK-OV-3 ovarian): > 100 µM
GI50 (SN12C renal): 3.61 µM
TGI (SN12C renal): > 100 µM
GI50 (SNB-19 CNS): 4.45 µM
TGI (SNB-19 CNS): > 100 µM
GI50 (SNB-75 CNS): 1.91 µM
TGI (SNB-75 CNS): > 100 µM
GI50 (SR leukemia): 0.537 µM
TGI (SR leukemia): > 100 µM
GI50 (SW-620 colon): 0.537 µM
TGI (SW-620 colon): > 100 µM
GI50 (T-47D breast): 3.32 µM
TGI (T-47D breast): > 100 µM
GI50 (TK-10 renal): 6.48 µM
TGI (TK-10 renal): > 100 µM
GI50 (U251 CNS): 3.61 µM
TGI (U251 CNS): > 100 µM
GI50 (UACC-257 melanoma): 8.67 µM
TGI (UACC-257 melanoma): > 100 µM
GI50 (UACC-62 melanoma): 2.06 µM
TGI (UACC-62 melanoma): > 100 µM
GI50 (UO-31 renal): 4.51 µM
TGI (UO-31 renal): > 100 µM
